Results from patent EP0326331B1, “Substituted quinolines and cinnolines” (Dow AgroSciences LLC, priority 1988, dated 1989).

What was measured:
Format in all cases: in vivo
[1] = tested on: Twospotted spider mites (Tetranychus urticae Koch); experiment: Mite/insect screen, SM; details: Tetranychus urticae, percent mortality; SAW, SM & MA RATE 200 PPM; read-out: SM RESULTS %
Method in brief: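 Activity is expressed as percent mortality at the indicated spray concentrations. Plants are sprayed to runoff on upper and lower leaf surfaces with aqueous dilutions of an acetone/alcohol emulsifiable formulation, then dried for one hour.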

[2] = tested on: Puccinia recondita tritici (leaf rust); experiment: Test 1 greenhouse foliar spray screen, leaf rust on wheat; details: disease control rating, foliar spray on wheat, 400 ppm (+++ at 100 ppm)
[3] = tested on: Erysiphe graminis tritici (powdery mildew); experiment: Test 1 greenhouse foliar spray screen, powdery mildew on wheat; details: disease control rating, foliar spray on wheat, 400 ppm (+++ at 100 ppm)
[4] = tested on: Septoria tritici (leaf blotch); experiment: Test 1 greenhouse foliar spray screen, leaf blotch on wheat; details: disease control rating, foliar spray on wheat, 400 ppm (+++ at 100 ppm)
[5] = tested on: Botrytis cinerea (gray mold); experiment: Test 1 greenhouse foliar spray screen, gray mold on grape berries; details: disease control rating, spray on grape berries, 400 ppm (+++ at 100 ppm)
[6] = tested on: Pyricularia oryzae (rice blast); experiment: whole plant or invertebrate; details: disease control rating, foliar spray on rice, 400 ppm (+++ at 100 ppm)
[7] = tested on: southern armyworm (Spodopetra eridania Cramer); experiment: Mite/insect screen, SAW; details: Spodoptera eridania, percent mortality; SAW, SM & MA RATE 200 PPM; read-out: SAW RESULTS %
Method in brief: (§1)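 Compounds dissolved in 50:50 acetone/alcohol containing sulfonate/nonionic emulsifier blends, then diluted with water to the indicated concentrations. Leaves sprayed on both surfaces to runoff at 10 psi and dried one hour. Percent mortality scored after standard exposure periods.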

[8] = tested on: Pseudoperonospora cubensis (downy mildew); experiment: Test 1 greenhouse foliar spray screen, downy mildew on squash; details: disease control rating, foliar spray on squash, 400 ppm (+++ at 100 ppm)
corn rootworm = experiment: Mite/insect screen, CRW; details: percent mortality; CRW RATE 12.00 PPM; read-out: CRW RESULTS %
Method in brief: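 Compounds were dissolved in 50:50 acetone/alcohol containing sulfonate/nonionic emulsifier blends (23 g/L plus 13 g/L), then diluted with water to the test concentrations. Percent mortality was scored after standard exposure periods.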

[9] = tested on: Venturia inaequalis (apple scab); experiment: Test 1 greenhouse foliar spray screen, apple scab on apple seedling; details: disease control rating, foliar spray on apple seedling, 400 ppm (+++ at 100 ppm)
[10] = tested on: melon aphids (Aphis gossypii Glover); experiment: Mite/insect screen, MA; details: Aphis gossypii, percent mortality; SAW, SM & MA RATE 200 PPM; read-out: MA RESULTS %
Method in brief: as §1

SMILES	mortality at 200 ppm [1]	LEAF RUST [2]	POWD MDEW [3]	LEAF BLOT [4]	GRAY MOLD [5]	RICE BLAST [6]	mortality at 200 ppm [7]	DOWN MDEW [8]	mortality at 12 ppm (corn rootworm)	APPL SCAB [9]	mortality at 200 ppm [10]
COc1ccc2nccc(NCCc3ccccc3)c2c1 [Example 1, 6-methoxy-N-(2-phenylethyl)-4-quinolineamine]	0%	+ (20-89% control at 400 ppm)	+ (20-89% control at 400 ppm)	- (0-19% control at 400 ppm)	+ (20-89% control at 400 ppm)	+ (20-89% control at 400 ppm)	0%	++ (90-100% control at 400 ppm)	0%	- (0-19% control at 400 ppm)	0%
CCc1ccc2nccc(NCCc3ccccc3)c2c1 [Example 3, 6-ethyl-N-(2-phenylethyl)-4-quinolinamine]	0%	+ (20-89% control at 400 ppm)	- (0-19% control at 400 ppm)	- (0-19% control at 400 ppm)	- (0-19% control at 400 ppm)	++ (90-100% control at 400 ppm)	0%	+++ (90-100% control at 100 ppm)	0%	- (0-19% control at 400 ppm)	0%
CCN(CCc1ccccc1)c1ccnc2ccccc12 [Example 4, N-ethyl-N-(2-phenylethyl)-4-quinolinamine]	0%	++ (90-100% control at 400 ppm)	+ (20-89% control at 400 ppm)	- (0-19% control at 400 ppm)	- (0-19% control at 400 ppm)	+ (20-89% control at 400 ppm)	0%	++ (90-100% control at 400 ppm)	0%	- (0-19% control at 400 ppm)	0%
Cc1cc(NCCc2ccccc2)c2ccccc2n1 [Example 6, 2-methyl-N-(2-phenylethyl)-4-quinolinamine]	0%	+ (20-89% control at 400 ppm)	++ (90-100% control at 400 ppm)	- (0-19% control at 400 ppm)	+ (20-89% control at 400 ppm)	+ (20-89% control at 400 ppm)	0%	++ (90-100% control at 400 ppm)	0%	- (0-19% control at 400 ppm)	0%
FC(F)(F)c1ccc2c(NCCc3ccccc3)ccnc2c1 [Example 17, N-(2-phenylethyl)-7-(trifluoromethyl)-4-quinolinamine]	0%	++ (90-100% control at 400 ppm)	++ (90-100% control at 400 ppm)	- (0-19% control at 400 ppm)	- (0-19% control at 400 ppm)	+ (20-89% control at 400 ppm)	0%	++ (90-100% control at 400 ppm)	0%	- (0-19% control at 400 ppm)	0%
Brc1ccc(CCNc2ccnc3ccccc23)cc1 [Example 18, N-[2-(4-bromophenyl)ethyl]-4-quinolinamine]	0%	++ (90-100% control at 400 ppm)	+ (20-89% control at 400 ppm)	- (0-19% control at 400 ppm)	+ (20-89% control at 400 ppm)	++ (90-100% control at 400 ppm)	0%	++ (90-100% control at 400 ppm)	0%	- (0-19% control at 400 ppm)	0%
